Results as given in ChEMBL document CHEMBL4004853, “Design, synthesis and biological evaluation of thienopyrimidine hydroxamic acid based derivatives as structurally novel histone deacetylase (HDAC) inhibitors” (Eur J Med Chem, 2017).

What was measured:
Histone deacetylase 3 = Histone deacetylase 3 (Homo sapiens, UniProt O15379); assay: Inhibition of full length recombinant human GST fused His6-tagged HDAC3 expressed in baculovirus infected High5 cells using Ac-Lys-Tyr-Lys(epsilon-acetyl)-AMC as substrate measured after 24 hrs
RPMI-8226 = assay: Antiproliferative activity against human RPMI8226 cells after 72 hrs by CellTiter 96 AQueous Non-Radioactive assay; format: functional, cell-based; conditions: RPMI-8226, 72 h
[1] = molecular target: T1, Protein deacetylase HDAC6 (Homo sapiens, UniProt Q9UBN7); assay: Inhibition of full length recombinant human GST fused His6-tagged HDAC6 expressed in baculovirus infected High5 cells using Boc-Lys(epsilon-acetyl)-AMC as substrate measured after 3 hrs
T1 sequence (Q9UBN7 whole entry): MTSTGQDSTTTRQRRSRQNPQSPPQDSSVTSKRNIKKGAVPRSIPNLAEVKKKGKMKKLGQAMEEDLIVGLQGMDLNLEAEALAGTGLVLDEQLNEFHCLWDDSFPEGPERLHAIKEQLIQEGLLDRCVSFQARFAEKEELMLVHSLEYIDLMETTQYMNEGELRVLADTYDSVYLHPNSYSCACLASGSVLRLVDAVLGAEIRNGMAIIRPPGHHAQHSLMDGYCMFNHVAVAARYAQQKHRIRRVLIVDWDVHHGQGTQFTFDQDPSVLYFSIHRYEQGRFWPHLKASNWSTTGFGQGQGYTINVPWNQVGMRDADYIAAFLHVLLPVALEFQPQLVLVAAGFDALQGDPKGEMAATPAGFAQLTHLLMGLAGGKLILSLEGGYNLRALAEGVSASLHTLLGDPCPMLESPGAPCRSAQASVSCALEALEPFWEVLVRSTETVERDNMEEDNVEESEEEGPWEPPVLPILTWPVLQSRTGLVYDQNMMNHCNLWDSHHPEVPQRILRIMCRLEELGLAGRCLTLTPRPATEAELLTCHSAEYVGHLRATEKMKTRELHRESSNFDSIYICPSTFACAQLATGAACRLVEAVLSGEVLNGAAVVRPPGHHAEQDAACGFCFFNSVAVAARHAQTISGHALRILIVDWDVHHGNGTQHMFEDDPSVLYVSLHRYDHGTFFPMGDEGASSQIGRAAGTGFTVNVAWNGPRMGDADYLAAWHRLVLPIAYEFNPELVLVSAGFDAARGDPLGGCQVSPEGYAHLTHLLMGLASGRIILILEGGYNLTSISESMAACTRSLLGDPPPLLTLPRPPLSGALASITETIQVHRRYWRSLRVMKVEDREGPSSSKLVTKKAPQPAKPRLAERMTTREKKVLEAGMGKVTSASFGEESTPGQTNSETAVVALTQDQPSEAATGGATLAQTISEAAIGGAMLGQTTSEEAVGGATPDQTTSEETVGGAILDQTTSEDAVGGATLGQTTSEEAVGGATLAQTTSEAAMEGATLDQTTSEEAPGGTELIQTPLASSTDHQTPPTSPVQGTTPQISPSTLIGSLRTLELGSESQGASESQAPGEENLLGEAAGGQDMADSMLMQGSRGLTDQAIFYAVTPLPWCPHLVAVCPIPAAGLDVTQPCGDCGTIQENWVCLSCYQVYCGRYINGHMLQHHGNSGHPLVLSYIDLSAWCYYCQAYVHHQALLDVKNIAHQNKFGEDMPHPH

Histone deacetylase 1 [2] = molecular target: T2, Histone deacetylase 1 (Homo sapiens, UniProt Q13547); assay: Inhibition of full length recombinant human GST fused His6-tagged HDAC1 expressed in baculovirus infected High5 cells using Ac-Lys-Tyr-Lys(epsilon-acetyl)-AMC as substrate measured after 24 hrs
HCT-116 = assay: Antiproliferative activity against human HCT116 cells after 72 hrs by CellTiter 96 AQueous Non-Radioactive assay; format: functional, cell-based; conditions: HCT-116, 72 h
[3] = molecular target: T3, Protein deacetylase HDAC6 (Homo sapiens) (UniProt Q9UBN7); assay: Inhibition of HDAC6 in human RPMI8226 cells assessed as increase in tubulin acetylation after 24 hrs by western blot analysis; format: cell-based
T3 sequence (whole entry): T1 sequence (Q9UBN7 whole entry)

Histone deacetylase 1 [4] = molecular target: T2, Histone deacetylase 1; assay: Inhibition of HDAC1 in human RPMI8226 cells assessed as increase in histone H3 acetylation after 24 hrs by western blot analysis; format: cell-based

Sequence of Histone deacetylase 3 (O15379 whole entry, the tested form may be a part): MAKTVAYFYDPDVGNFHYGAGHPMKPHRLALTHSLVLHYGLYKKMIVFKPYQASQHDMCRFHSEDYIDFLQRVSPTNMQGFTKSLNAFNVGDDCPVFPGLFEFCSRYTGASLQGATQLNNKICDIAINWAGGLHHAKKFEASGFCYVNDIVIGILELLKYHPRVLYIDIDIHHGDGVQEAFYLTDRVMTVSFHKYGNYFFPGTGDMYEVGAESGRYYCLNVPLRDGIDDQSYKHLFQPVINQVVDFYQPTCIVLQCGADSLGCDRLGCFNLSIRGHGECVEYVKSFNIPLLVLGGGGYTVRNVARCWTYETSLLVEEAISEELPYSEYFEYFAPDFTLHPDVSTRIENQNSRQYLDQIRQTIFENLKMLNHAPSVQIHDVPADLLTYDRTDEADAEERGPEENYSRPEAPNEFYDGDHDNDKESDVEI
T2 sequence (Q13547 whole entry, the tested form may be a part): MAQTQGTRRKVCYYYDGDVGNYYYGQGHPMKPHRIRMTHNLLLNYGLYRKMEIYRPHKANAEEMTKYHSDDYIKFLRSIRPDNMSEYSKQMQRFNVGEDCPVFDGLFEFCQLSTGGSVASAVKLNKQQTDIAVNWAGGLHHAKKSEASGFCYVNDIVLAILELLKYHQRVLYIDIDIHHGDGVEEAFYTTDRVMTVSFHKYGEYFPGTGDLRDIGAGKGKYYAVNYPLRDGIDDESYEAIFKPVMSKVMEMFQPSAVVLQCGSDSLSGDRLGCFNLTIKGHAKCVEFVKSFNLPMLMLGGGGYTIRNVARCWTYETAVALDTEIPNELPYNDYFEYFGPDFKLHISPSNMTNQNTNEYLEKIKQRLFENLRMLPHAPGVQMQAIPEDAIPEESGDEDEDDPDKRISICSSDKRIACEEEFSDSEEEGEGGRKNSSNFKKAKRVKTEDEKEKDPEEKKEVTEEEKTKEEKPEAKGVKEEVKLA

Structure (SMILES) | IC50 (Histone deacetylase 3) [nM] | IC50 (RPMI-8226) [nM] | IC50 [1] [nM] | IC50 (Histone deacetylase 1 [2]) [nM] | IC50 (HCT-116) [nM] | inhibition [3] | inhibition (Histone deacetylase 1 [4])
COc1ccc(Nc2ncnc3cc(NC(=O)CCCCCCC(=O)NO)sc23)c(C)c1 | 144 | 1980 | 111 | 117 | 2480 |  | 
CCc1cccc(Nc2ncnc3cc(NC(=O)CCCCCCC(=O)NO)sc23)c1 | 147 | 1570 | 58.5 | 116 | 1440 |  | 
Cc1ccccc1Nc1ncnc2cc(NC(=O)CCCCCC(=O)NO)sc12 | 98.8 | 1750 | 87.6 | 138 | 2560 |  | 
O=C(CCCCCCC(=O)Nc1cc2ncnc(Nc3cccc(F)c3)c2s1)NO | 64.5 | 1630 | 42.5 | 73.7 | 1780 |  | 

Stronger by IC50 (Histone deacetylase 3), values ahead:

IC50 (Histone deacetylase 3) [nM] | IC50 (RPMI-8226) [nM] | IC50 [1] [nM] | IC50 (Histone deacetylase 1 [2]) [nM] | IC50 (HCT-116) [nM] | inhibition [3] | inhibition (Histone deacetylase 1 [4]) | Structure (SMILES)
33.8 | 1750 | 16.9 | 54.5 | 1740 |  |  | O=C(CCCCCCC(=O)Nc1cc2ncnc(Nc3cccc(Br)c3)c2s1)NO
21.4 | 1260 | 20.9 | 62.2 | 1330 | Dose-dependent effect | Dose-dependent effect | COc1cccc(Nc2ncnc3cc(NC(=O)CCCCCCC(=O)NO)sc23)c1
19.8 | 1580 | 20.1 | 45 | 2090 | Dose-dependent effect | Dose-dependent effect | N#Cc1cccc(Nc2ncnc3cc(NC(=O)CCCCCCC(=O)NO)sc23)c1
45.5 | 1520 | 33.8 | 53.8 | 1820 |  |  | O=C(CCCCCCC(=O)Nc1cc2ncnc(Nc3cccc(Cl)c3)c2s1)NO
